Source: ChEMBL document CHEMBL4665699, “Cytotoxic Diterpenoids from Caryopteris aureoglandulosa” (J Nat Prod, 2020)

What was measured:
Assay type in all cases: functional, cell-based
NCI-H460 = assay: Cytotoxicity against human NCI-H460 cells assessed as reduction in cell viability after 48 hrs by CCK8 assay; conditions: NCI-H460, 48 h
A549 = assay: Cytotoxicity against human A549 cells assessed as reduction in cell viability after 48 hrs by CCK8 assay; conditions: A549, 48 h
[1] = Cytotoxicity against human 95-D cells assessed as reduction in cell viability after 48 hrs by CCK8 assay
NCI-H1650 = assay: Cytotoxicity against human NCI-H1650 cells assessed as reduction in cell viability after 48 hrs by CCK8 assay; conditions: NCI-H1650, 48 h
PC-9 = assay: Cytotoxicity against human PC-9 cells assessed as reduction in cell viability after 48 hrs by CCK8 assay; conditions: PC-9, 48 h

Row | Structure (SMILES) | IC50 (NCI-H460) [µM] | IC50 (A549) [µM] | IC50 [1] [µM] | IC50 (NCI-H1650) [µM] | IC50 (PC-9) [µM]
1 | C[C@@]12CC[C@@H](OC1=O)c1c2cc(O)c2c1C(=O)c1oc(CO)cc1C2=O | > 10 | 4.8 | 3.9 | 1.6 | > 10
2 | Cc1cc2c(o1)C(=O)c1cc3c(c(O)c1C2=O)C(=O)CCCC3(C)C | > 10 | 10.4 | > 10 | 5.4 | 8.2
3 | O=c1[nH]cc(F)c(=O)[nH]1 [FLUOROURACIL] | 9.9 | > 10 | > 10 | > 10 | > 10
